Data set [1] is described as follows: Inhibition of GST-tagged recombinant RANKL/M-CSF-induced osteoclastogenesis in C57BL/6 mouse bone marrow derived macrophages assessed as TRAcP enzymatic activity incubated for 5 days with subsequent replenishment of media for 2 days and measured by leucocyte acid phosphatase staining method. The note with it: bmdm. It is filed as functional, tissue-based.
Data set [2] can be described thus: Cytotoxicity against C57BL/6 mouse bone marrow measured after 48 hrs by CCK8 assay. It counts as tissue-based, BMDM. The settings on record: mouse bone marrow cells. (In general: Formazan colour is commonly taken as a measure of viable cells.)
Data set [3] relates to BMDM. The data set is described as follows: Inhibition of RANKL-induced osteoclastogenesis in C57BL/6 mouse bone marrow derived macrophages assessed as reduction in CTSK mRNA expression measured after 4 days by qRT-PCR method. It counts as functional, tissue-based. The settings on record: dose 0.5-5 µM, time 4.0 day. For orientation: Real-time PCR tracks product formation cycle by cycle.

The subject of data set [4] is BMDM. The data set is described as follows: Inhibition of RANKL-induced osteoclastogenesis in C57BL/6 mouse bone marrow derived macrophages assessed as reduction in NFATC1 mRNA expression measured after 4 days by qRT-PCR method. The note with it: dose 0.5-5 µM, time 4.0 day. It counts as functional, tissue-based.
For data set [5], the system named is BMDM. The data set is described as follows: Inhibition of RANKL-induced osteoclastogenesis in C57BL/6 mouse bone marrow derived macrophages assessed as reduction in TRACP mRNA expression measured after 4 days by qRT-PCR method. It counts as functional, tissue-based. The note with it: dose 0.5-5 µM, time 4.0 day.
Data set [6] relates to BMDM. The data set is described as follows: Inhibition of RANKL-induced osteoclastogenesis in C57BL/6 mouse bone marrow derived macrophages assessed as reduction in RANK mRNA expression measured after 4 days by qRT-PCR method. It counts as functional, tissue-based. The settings on record: dose 0.5-5 µM, time 4.0 day.

The IC50 is the concentration that gives 50% inhibition. As for `COc1ccc(C[C@H]2c3cc(OC)c(OC)cc3CCN2C)cc1OC`, in data set [1], the IC50 result was “Not Active”.
A word on the CC50: it is the concentration giving 50% cytotoxicity. The compound `COc1cc2c(cc1OC)C(Cc1ccc(OCc3ccccc3)c(OC)c1)=NCC2` gave a CC50 at 48 h in data set [2] of 26.9 µM. For the same compound, the inhibition entry in the data set on BMDM [3], with BMDM [4], in the data set on BMDM [5] and with BMDM [6] was “Dose-Dependent Effect” in each case. For the same compound, the IC50 in data set [1] (read-out: IC50) is 0.032 µM.
Regarding `COc1cc2nc3occc3c(OC)c2cc1OC` [KOKUSAGININE], the IC50 in data set [1] (read-out: IC50) stood at 3.16 µM.
On to `CC(=O)[C@H]1CC[C@H]2[C@@H]3CC[C@H]4C[C@@H](OC(=O)Cc5ccc(C(=O)c6ccccc6)cc5)CC[C@]4(C)[C@H]3CC[C@]12C`, for which the IC50 in data set [1] (read-out: IC50) was found to be 1.73 µM.
Consider `COc1c2cc3c(cc2nc2occc12)OCO3` [MACULINE], for which the IC50 entry in data set [1] was “Not Active”.
On to `COc1cc([C@H]2OC[C@H]3[C@@H]2CO[C@@H]3c2ccc(OC(C)=O)c(OC)c2)ccc1OC(C)=O`, for which, in data set [1], the IC50 result was “Not Active”.
The same measure, in the same setting: the result for `C[C@@H]1CC[C@@]2(OC1)O[C@H]1C[C@H]3[C@@H]4CC[C@H]5C[C@H](O)CC[C@]5(C)C4=CC[C@]3(C)[C@H]1[C@@H]2C` reads “Not Active”; that for `COc1ccc(C(=O)/C=C/c2ccccc2)c(O)c1`, “Not Active”.
In turn, `COc1ccc2c(c1)CCN=C2Cc1ccc(OCc2ccccc2)c(OC)c1C` came in with a CC50 at 48 h in data set [2] of 19.9 µM. The inhibition entry in the data set with BMDM [3], in the data set on BMDM [4], with BMDM [5] and in the data set with BMDM [6] was “Dose-Dependent Effect” in each case. Further, the IC50 in data set [1] (read-out: IC50) was 0.068 µM.
As for `C=C1CC[C@@H]2[C@](C)(CO)[C@H](O)CC[C@@]2(C)[C@@H]1C/C=C1/C(=O)OC[C@H]1O` [ANDROGRAPHOLIDE], the IC50 in data set [1] (read-out: IC50) stood at 0.55 µM.

The record behind these values is ChEMBL document CHEMBL4813915, “Deep learning enables discovery of highly potent anti-osteoporosis natural products” (Eur J Med Chem, 2021).
